We go through one molecule from patent US20240335539A1, “MODULATION OF BCL-2 TO ENHANCE CHIMERIC ANTIGEN RECEPTOR CANCER IMMUNOTHERAPY EFFICACY” (The Trustees of the University of Pennsylvania, priority 2021, published 2024).

Data set [1] has as its system CART19. The data set is described as follows: In vitro venetoclax CART cell toxicity assay. Format: cell-based, human. Particulars: for IC50: Homo sapiens. On the procedure:
(§1) CART cells were combined with target cancer cells at an E:T ratio of 0.25:1, and co-cultures were evaluated for absolute count of T cells and cancer cells by flow cytometry using CountBright absolute counting beads (ThermoFisher) every three days. Cultures were maintained at a concentration of 1×10^6 total cells/mL. To monitor their differentiation status, CART cells were harvested on day 0, 9, and 18. Next, CART cells were stained with anti-CCR7 and anti-CD45RA antibodies for flow cytometric analysis. CART cells were re-stimulated by PMA/Ionomycin on day 18 after initial stimulation in order to evaluate the anti-tumor activity of long-survived CART cells.
To investigate this hypothesis, the expansion and persistence of CART19 cells in the peripheral blood of NSG mice treated with CART19 plus venetoclax or CART19 alone was analyzed using flow cytometry. […] To test whether prolonged exposure to venetoclax leads to CART cell toxicity, an in vitro venetoclax toxicity assay was performed using CART cells manufactured from 8 different T cell donors. […] Of note, the level of toxicity to CART cells varied among the different T cell donors, likely due to different apoptotic priming statuses at baseline. […] In order to discern whether the reduced survival was due to increased apoptosis or reduction of proliferation, the caspase 3/7 activity in CART19 was assessed in the presence or absence of venetoclax. […] Overall, these studies indicate that the higher doses of venetoclax required to suppress neoplasms with venetoclax resistance can cause apoptosis in CART19 cells. However, the BCL-2 pathway is a critical node for cancer resistance to CART immunotherapy and venetoclax can be toxic to CART cells. Thus, a different approach to overcome the limitation of targeting BCL-2 combined with CART immunotherapy was needed.
(§2) Correct expression of the transgenes in target cells was confirmed by intracellular staining for CAR19 and BCL-2 using flow cytometry (FIG. 10B). […] Additionally, venetoclax CART cell toxicity assays were performed to evaluate whether the mutant BCL-2 could provide resistance to venetoclax.

Data set [2] deals with CART19-BCL-2(WT). In words: In vitro venetoclax CART cell toxicity assay. Particulars: Homo sapiens; venetoclax on CART19-BCL-2(WT); long-term in vitro assay; n=3 donors; read-out: average IC50 value (CART cell survival). The class given is cell-based. How it is done:
as §1, §2

The subject of data set [3] is mantle cell lymphoma (MCL). In words: Clinical outcomes of MCL patients after brexucabtagene autoleucel by venetoclax bridging therapy. The class given is in vivo, human. How it is done: FIGS. 13A-13H illustrate the finding that chromosomal alterations of BCL-2 in lymphoma patients associate with poor prognosis of CART therapy. FIG. 13A is a schematic of the strategy used herein to investigate whether genetic alteration of BCL-2 affects CART's anti-tumor clinical response. Pre-CART biopsies from patients with LCL were analyzed by fluorescence in situ hybridization (FISH) to search for BCL-2 chromosomal aberration. […] FIG. 13F is a schematic of the strategy used herein to investigate the impact of venetoclax bridging therapy on CART19's clinical response in MCL patients. […]
For the large B cell lymphoma cohort, clinical data were collected from patients diagnosed with DLBCL not otherwise specified (NOS), high-grade B cell lymphoma (HGBCL) NOS, HGBCL with MYC and BCL-2 and/or BCL-6 rearrangements, and transformed follicular lymphoma treated at the University of Pennsylvania using two commercial CART19 products (tisagenlecleucel or axicabtagene ciloleucel, UPCC44420) or enrolled in the CTL019 clinical trial NCT02030834. Only patients evaluated for chromosomal alterations involving the BCL-2 locus by interim FISH analysis were included in the current study. […] Disease response was determined according to Lugano classification. […]

For data set [4] the following is noted: patient treated with venetoclax (Jones et al. 2016); cited from earlier work.
The subject of data set [5] is NALM6. In words: Targeted pro-apoptotic small molecule screening with CART19 against NALM6, killing by luminescence at 48 hours. The settings on record: drug 100 and 1000 nM with CART19.
Description: Killing of NALM6 cells was quantified at 48 hours by luminescence. Drug screening of pro-apoptotic small molecules was performed with two concentrations (100 and 1000 nM). […] Two concentrations of 29 drugs were used (100 nM and 1000 nM). Killing of NALM6 cells was assessed at 48 hours by luminescence. […] UTD: untransduced T cells; CART19: anti-CD19 CAR T cell; MCL: mantle cell lymphoma; E:T=ratio of effector to target; IAP: Inhibition of apoptosis protein.
CART19 and NALM6 (luciferase+) cells were seeded at a ratio of 0.08E:1T (i.e., 600 CART: 7000 NALM6) per well in 25 μl of growth medium (RPMI1640+10% FBS+1% Pen-strep+1% glutamine) of 384-well Corning 3570 microplate using a Multidrop™ Combi Reagent Dispenser (Thermo Scientific). Following cell seeding, drugs (50 nL) were transferred to assay plates using a 50 nL slotted pin tool (V&P Scientific) and a JANUS Automated Workstation (Perkin Elmer). Compounds/drugs were added to a final concentration of 1 μM in 0.2% DMSO. Columns 1 and 23 were treated with 0.2% DMSO (negative control). […] Luminescence was measured on an EnVision Xcite Multilabel Plate Reader (PerkinElmer), using the ultrasensitive luminescence measurement technology.
In order to screen pro-apoptotic small molecules that can enhance CART cell killing, a targeted screening assay was performed. […] Tumor killing was measured by luminescence at 48 hours.

Where two headings read alike, the source gives them in different places.

Turning to `CC1(C)CCC(CN2CCN(c3ccc(C(=O)NS(=O)(=O)c4ccc(NCC5CCOCC5)c([N+](=O)[O-])c4)c(Oc4cnc5[nH]ccc5c4)c3)CC2)=C(c2ccc(Cl)cc2)C1` [venetoclax], the “Survival of CART19 cells” value in data set [1] (5 days of co-culture, CART cells from 8 donors) was “significant reduction in the survival of CART19 cells”. Further, the IC50 in data set [1] (healthy donor-derived CAR T cell, read-out: average value of the IC50 concentration) is 600 nM; in data set [1] (venetoclax on CART19, long-term in vitro assay, n=3 donors, read-out: average IC50 value (CART cell survival)), 131 nM; in data set [2], 998 nM. For the same molecule, the “Caspase 3/7 activation in CART cells” value in data set [1] (venetoclax present vs absent) was “significant caspase 3/7 activation in CART cells”. In data set [3] (bridging therapy including venetoclax (7/8)), the “complete response rate after brex-cel” value is 87.5%. In data set [3] (venetoclax bridging therapy before brex-cel), the “patients in complete response at one year” value was 100%. Besides, the “physiological concentration in a patient” value in data set [4] was “around 2.3 M”. The “Enhancement of CART19 killing / CART cell cytotoxicity” value in data set [5] is on record as “strong enhancement of CART19 killing”.
